# Experimental data reported in patent US20260092085A1, “SYNTHETIC TRIPLEX PEPTIDE NUCLEIC ACID-BASED INHIBITORS FOR CANCER THERAPY” (University of Connecticut, priority 2022, published 2026).
# Assays:
# SUDHL-2 cells = assay: Cell viability by trypan blue assay, SUDHL-2; assay type: cell-based; settings: SUDHL-2, in comparison to PBS treated control cells
# Description: (§1) Cell viability was performed using trypan blue-based assay (n=3 technical triplicate), data represented as mean±(SEM), * represents the statistical analysis were performed relative to Scr-γtcPNA-155 and ♦ represent analysis performed relative to PNA-155. *p<0.05, **p<0.01, ***p<0.001 and ****p<0.0001, ♦p<0.05, ♦♦p<0.01, unpaired two-tailed t-test was used for statistical analysis. The experiment was repeated three times and in triplicate.
# (§2) Cell viability was performed using trypan blue-based assay (n=3), data represented as mean±standard error mean (SEM), *p<0.05, **p<0.01. Unpaired two-tailed t-test was used for statistical analysis.
# (§3) Cell viability was performed using trypan blue-based assay (n=3), data represented as mean±standard error mean (SEM).
# (§4) Cell viability by trypan blue assay: Diffused large B cell lymphoma (DLBCL) cell lines like SUDHL-2 (ATCC® CRL-2956™) and SUDHL-5 (ATCC® CRL-2958™) cells were purchased from ATCC (Virginia, USA). The cells were regularly tested for Mycoplasma contamination using MycoAlert™ Mycoplasma detection kit (Lonza). All the cells used in the experiment were passaged less than 8 times. 10,000 U2932, SUDHL-5, or SUDHL-2 cells were plated in a 96 well plate. The cells were treated with different doses (500 nM, 1000 nM, 2000 nM and 4000 nM) of PNA-155, gamma tcPNA-155 or Scr-γtcPNA-155 for 48 hrs in an incubator (37° C. and 5% CO2). The dead cells were marked with trypan blue. Further counting was performed using an automated cell counter (Bio-rad).
# SUDHL-5 cells = assay: Cell viability by trypan blue assay, SUDHL-5; assay type: cell-based; settings: SUDHL-5, in comparison to PBS treated control cells
# Description: as §1, §2, §3, §4
# miR-155 = miR-155 gene expression in U2932 tumor samples after in vivo treatment; design: species or system NSG mice; settings: U2932 xenograft
# Description: (§5) FIGS. 22A-D show in vivo gene expression and protein level analysis. (22A) miR-155 gene expression levels in U2932 tumor samples after in vivo treatment with indicated PNAs. Data was normalized with average control U6 (n=4, data represented as mean±standard error mean). ***p<0.001 (22B) Gene expression level of downstream target genes of miR-155: MCL1 in U2932 tumor samples after treatment with total 3 mg kg-1 dose of Scr-γtcPNA-155, PNA-155, γPNA-155 and γtcPNA-155 and normalized with average control GAPDH (n=3, data represented as mean±SEM), unpaired two-tailed t-test was performed for analysis). *p<0.05, **p<0.01 (22C) Representative western blot of Mcl-1 protein and its quantification (n=3 technical replicate) in U2932 tumor samples treated with total 3 mg kg-1 dose of Scr-γtcPNA-155, PNA-155 and γtcPNA-155. Data is represented as mean±SEM and unpaired two-tailed t-test was performed for analysis. *p<0.05. The relative protein levels were determined from the band intensity using ImageJ software and normalized relative to loading control and treatment control. (22D) Gene expression level of tumor suppressor proteins (FOXO3A, CUX1, SOCS1, CSF1R, JARID2, SHIP1, PICALM, PDCD4, BACH1, CASP3) in U2932 tumor samples after treatment with total 3 mg kg-1 dose of Scr-γtcPNA-155, PNA-155, γPNA-155 and γtcPNA-155 and normalized with average control GAPDH (n=3, data represented as mean±SEM, unpaired two-tailed t-test was performed for statistical analysis). *p<0.05, **p<0.01.
# RNA and Protein extraction from tumor samples: The mice were injected intra-tumorally with 1 mg kg-1 dose of PNA-155, γtcPNA-155, γPNA-155, Scr-γtcPNA-155 or were untreated. The injections were repeated two additional times after 1 week each. The length, breadth, and depth of the tumors were measured daily using a vernier caliper. The mice were euthanized when the tumor volumes reached 2000 mm^3. The resected tumor sections were finely minced using a sterile blade and suspended in dissociation media (4 ml) comprising of RPMI-1640, 1.2 mg/ml dispase, and 0.5 mg/ml collagenase for 90 mins at 500 rpm at 37° C. The dissociated tumors were washed with buffer saline at 2500 rpm (4 mins) at 4° C. and then suspended in 0.25% trypsin for 4 mins at room temperature. RPMI 1640 media was added to the trypsinized tumor mass, and the cells were passed through a 70 um filter. The cells were centrifuged at 2500 rpm for 4 mins at 4° C. The cell pellet was then suspended in 1×RBC lysis buffer (Sigma) and incubated on ice for 10 mins. PBS was added to the cells and the cells were passed through a 40 um filter. The cells were centrifuged at 2500 rpm for 4 mins at 4° C. The cell pellet was resuspended in 0.5% BSA in PBS. […]
# PBMC cells = assay: Safety assessment by trypan blue assay in PBMC; assay type: cell-based; settings: 500-4000 nM, 48 hours
# Description: Control is PBS treated PBMC cells. n=3, data represented as mean±standard error mean (SEM).
# Safety assessment by trypan blue assay […] blood mononuclear cells (PBMC) (ATCC® PCS-800-011™) were purchased from ATCC (Virginia, USA). The cells were regularly tested for Mycoplasma contamination using MycoAlert™ Mycoplasma detection kit (Lonza). All the cells used in the experiment were passaged less than 2 times. 10,000 PBMC cells were seeded in a 96 well plate. The cells were treated with 500 nM, 1000 nM, 2000 nM and 4000 nM PNA-155 and γtcPNA-155 for 48 hrs in an incubator. The dead cells were examined with trypan blue and further counted using an automated cell counter (Bio-rad).
# [1] = tested on: U2932 subcutaneous tumors; assay: Tumor growth in U2932 derived xenograft model; assay type: in vivo, NSG mice; settings: intra-tumoral injections days 0, 7, 14
# Description: Mouse tumor xenograft: Female NSG mice (NOD.Cg-Prkdcscid Il2rgtm1Wjl/SzJ, strain 005557) weighing 20-23 g were procured from Jackson laboratories. 1×10^7 U2932 cells suspended in RPMI-1640 medium were injected subcutaneously in the right and left flank of 6-week-old NSG mice. The mice developed a small bump in 2 weeks. When the tumor volume reached 100-200 mm^3, the mice were randomly assigned to the treatment group (n=6 per group).
# (§6) RNA and Protein extraction from tumor samples: The mice were injected intra-tumorally with 1 mg kg-1 dose of PNA-155, γtcPNA-155, γPNA-155, Scr-γtcPNA-155 or were untreated. The injections were repeated two additional times after 1 week each. The length, breadth, and depth of the tumors were measured daily using a vernier caliper. The mice were euthanized when the tumor volumes reached 2000 mm^3. The resected tumor sections were finely minced using a sterile blade and suspended in dissociation media (4 ml) comprising of RPMI-1640, 1.2 mg/ml dispase, and 0.5 mg/ml collagenase for 90 mins at 500 rpm at 37° C. The dissociated tumors were washed with buffer saline at 2500 rpm (4 mins) at 4° C. and then suspended in 0.25% trypsin for 4 mins at room temperature. RPMI 1640 media was added to the trypsinized tumor mass, and the cells were passed through a 70 um filter. The cells were centrifuged at 2500 rpm for 4 mins at 4° C. The cell pellet was then suspended in 1×RBC lysis buffer (Sigma) and incubated on ice for 10 mins. PBS was added to the cells and the cells were passed through a 40 um filter. The cells were centrifuged at 2500 rpm for 4 mins at 4° C. The cell pellet was resuspended in 0.5% BSA in PBS. The mouse cells were removed from the tumor cells using a mouse cell depletion kit (Miltenyi Biotec) according to the manufacturer's protocol. The enriched tumor cells from each tumor sample were divided into two fractions. RNA for gene expression analysis was extracted from one tumor fraction by the same procedure as mentioned earlier. The protein for western blot analysis was extracted from the second fraction using the method described above.
# For the efficacy study, each mouse received three intra-tumoral injections of either γtcPNA-155, γPNA-155 or PNA-155 on days 0, 7, 14. We noticed that the control and scrambled treated tumors reached 2000 mm^3 much faster during our study, so we could not inject a third time in these mice. […] In contrast, as stated earlier, there was no effect on the control and scrambled PNA control on the tumor volume.
# miR-155 downstream genes = assay: Downstream gene expression and protein levels in U2932 tumor samples; assay type: in vivo, NSG mice; settings: U2932 xenograft
# Description: as §5
# Data is represented as mean±SEM and unpaired t-test was used for statistical analysis *p<0.05. The relative protein levels were determined from the band intensity using ImageJ software and normalized relative to loading control and treatment control.
# Data is represented as mean±SEM and unpaired t-test was used for statistical analysis.
# Data is represented as mean±SEM and unpaired t-test was used for statistical analysis. The relative protein levels were determined from the band intensity using ImageJ software and normalized relative to loading control and treatment control.
# as §6
# U2932 cells = assay: Cell viability by trypan blue assay, U2932; assay type: cell-based, human; settings: U2932, in comparison to PBS treated control cells
# Description: as §1, §2, §3, §4
substance,measurement,setting,value
"Scr-γtcPNA-155: scrambled γtcPNA-155 synthesized as a control, SEQ ID NO: 4 (ACNTGCCATTNCACGAACNCT; gamma PNA backbone; scramble sequence; misc_feature 1 Arg-Arg-adenine-thymine-pseudoisocytosine-thymine -adenine-11-amino-3,6,9-trioxaundecanoic acid covalently linked to the backbone; modified_base 3 OTHER; n is pseudoisocytosine; modified_base 11 OTHER; misc_feature 21 Arg-Arg covalently linked to the backbone; modified_base 19 OTHER; modified_base 1..21 OTHER; peptid) [reference compound]",effect on cell viability,SUDHL-2 cells,did not notice any effect on cell viability
same,effect on cell viability,SUDHL-5 cells,did not notice any effect on cell viability
same,miR-155 expression level in tumors (change),miR-155,did not observe a change
same,viability of PBMC cell lines,PBMC cells,do not cause any non-specific effects
same,tumor growth / tumor volume,[1],no effect
same,alteration in gene expression in tumors,miR-155 downstream genes,did not notice any alteration
same,Mcl-1 protein level in tumors,miR-155 downstream genes; western blot,did not notice any alteration
same,effect on cell viability,U2932 cells,did not notice any effect on cell viability
